Measurements reported in US7585839B2, “Medical uses of intercellular communication facilitating compounds” (Zealand Pharma A/S, priority 2001, dated 2009).

Legend:
[1] = test system: phosphoinositol turnover in neonatal rat cardiomyocytes; assay: Phosphoinositol turnover in primary cardiomyocyte cultures; type: cell-based; settings: 100 nM + noradrenaline 300 nM
Protocol: Neonatal Wistar rats (1-2 days old) are used. Hank's calcium- and magnesium-free balanced salt solution, buffered with 10 mM HEPES is used for washing during cell separation procedures. The hearts are excised, the ventricles isolated and the tissue cut into small pieces. The myocardial cells are isolated by stepwise enzymatic degradation with collagenase 0.05%, as described by ^[35]. After repeated rounds of centrifugation and washing, the precipitated cells are resuspended in culture medium M199 with Earle's salt, 10% NCS, penicillin (75 U/mL), and streptomycin (75 U/mL) and pre-plated in a Petri dish for 90 minutes. The non-adherent cells are collected in the culture medium and plated in multidishes at 2.5*10^5 cells/well. The cultures are kept in a water-saturated CO2-incubator at 37° C. The cardiomyocyte cultures are used for analyses after 6-7 days.
Cardiomyocyte cultures are incubated for 48 hours in culture medium containing 4 μCi/mL myo-[2-^3H]inositol to label the inositol phospholipids. On the day of analysis the medium is replaced by a buffer solution containing lithium and incubated at 37° C., as described by Meier et al.^[36]. After at least five minutes this buffer is replaced by the same volume of buffer containing test compound and incubated for exactly 20 minutes. The reaction is stopped by rapid replacement of the buffer by ice cold 4% v/v perchloric acid (PCA) and incubation for at least 20 minutes at 0° C. The PCA-extract is neutralised and the [^3H]inositol phosphates are separated by anion-exchange chromatography using Amprep™ columns containing 100 mg SAX Quaternary amine. The [^3H]inositol mono-phosphates are eluted and radioactivity in the fraction measured by liquid scintillation counting.
Before adding test substances to the cultures, the cells are depleted of glucose and oxygen by incubating them in a N2-atmosphere in glucose-free lithium-buffer for 10 minutes at 37° C. Control cells are incubated likewise only at normal atmospheric conditions and in a buffer containing glucose.

[2] = test system: calcium-induced arrythmias; assay: Calcium-induced arrhythmia model in mice (CaCl2-induced 2nd degree AV-block); type: in vivo; settings: mouse, in vivo
Protocol: The antiarrhythmic effects of compounds of this invention were tested in an in vivo model of calcium-induced arrythmias according to the model of Lynch et al.^[37]. […]. Commercial solutions of hypnorm and midazolam were diluted 1:1 in distilled water and one part diluted Hypnorm® is mixed with one part diluted midazolam.
The anaesthesia was induced by s.c. administration in a dose of 0.05-0.075 μl/10 gram mouse. An i.v. cannula was inserted into the tail vein. The lead II ECG signal was recorded continuously by positioning of a stainless steel ECG electrodes on the right forelimb and on the left hind limb. The ground electrode was placed on the right hind limb. The signal was amplified (×5.000-10.000) and filtered (0.1-150 Hz) via a Hugo Sachs Electronic model 689 ECG module. The analogue signal was digitised via a 12 bit data acquisition board (Data Translation model DT321) and sampled at 1000 Hz using the Notocord HEM 3.1 software for Windows NT. After a 10-min equilibration period, the test sample of drug was injected into the tail vein. Mice pre-treated with vehicle were tested as a measure of the control level in untreated animals. The injection volume was 100 μl in all experiments. Infusion of CaCl2 (30 mg/ml, 0.1 ml/min≈100 mg/kg/min (calciumchlorid-2-hydrat, Riedel-de Haën, Germany)) was started 3 min after i.v. administration of drug or vehicle.
The time lag to onset of 2nd degree AV-block was determined as the time from the start of CaCl2 infusion until the first arrhythmic event occured. An event of 2nd degree AV-block was defined as intermittent failure of the AV conduction characterised by a P-wave without the concomitant QRS complex.
Responses were expressed relative to the time until 2nd degree AV-block occurred in vehicle treated mice.

[3] = test system: reentry ventricular tachycardia; assay: Ventricular reentry arrhythmias in dogs after coronary artery occlusion; type: in vivo, dog; settings: after the lowest dose (bolus 0.1 μg/kg; infusion 2 ng/kg/min) i.v.
Protocol: Three dogs were studied in the anesthetized, open chest state to facilitate electrode placement for mapping. α-chloralose was given as a bolus (200 mg/kg) and then a constant infusion at 8 mg/kg/hr (dissolved in polyethylene glycol, MW=200). The femoral vein and artery was cannulated for administration of fluid and drugs and for measurement of ascending aortic pressure, respectively.
The sinus node was clamped and the atrial appendage was paced with a programmable stimulator with constant current outputs at two times diastolic threshold. Pacing rate was ≧200 b/min to control heart rates. […] Late ventricular diastolic threshold was measured during each intervention; the pacing current was four times threshold.
Test sites were chosen along the shaft of 16 pole needles (J. Kassell, Fayetteville, N.C.); each pole completely surrounds the needle shaft to prevent directionality of needle orientation from recording of adjacent Purkinje strands. Six bipolar electrograms (1 mm spacing) were recorded sequentially down the shaft of the needle by amplifying up to 1000 times, filtering from 3-1300 Hz and recording via oscilloscope during atrial pacing. Four intramural electrograms are recorded on each multipolar needle. […] Inter-needle distance measured on epicardium varies over 6-10 mm in dogs weighing 12-16 kg. […]

human osteoblast = assay: Lucifer Yellow microinjection dye transfer, human osteoblasts; type: cell-based; settings: 48 hours hypoxia 3-6% O2; 10 minutes incubation; 7 cells before
Protocol: Human osteblast cells (hOB): Cells were isolated from human bone marrow obtained by puncture of the posterior iliac spine of healthy volunteers (aged 20-36): 10-15 ml marrow material was collected in 15 ml PBS+Ca,Mg (Life Technologies, Cat.No. 14040) with 100 U/ml Heparin (Sigma, Cat.No. H-3149). The mononuclear fraction of the marrow was isolated on a Lymphoprep gradient (Nycomed Pharma, Cat.No. 1001967), by centrifugation at 2200 rpm for 30 min. After harvesting, the mononuclear fraction was washed once with culture medium and centrifuged at 1800 rpm for 10 min. Subsequently cells were counted and plated in culture medium at 8×10^6 cells/100 mm dish. hOB medium (all reagents obtained from Life Technologies): MEM w/o Phenol Red w/Glutamax (Cat.No. 041-93013) supplemented with 10% heat inactivated fetal calf serum (Cat.No. 10106) and 0.1% Penicillin/Streptomycin (Cat.No. 15140). Medium was changed the following day and the cells were cultured at 37° C. in 5% CO2 with medium change every 7 days. After 3-4 weeks of culture the cells had reached 70% confluence. The medium was then supplemented with 100 nM Dexamethasone (Sigma, Cat.No. D-4902) for 7 days. Cells were then plated for video imaging experiments: a 25 mm #1 glass coverslip was placed in a 35 mm dish (or each well of a 6-well multidish), cells were plated at 2.5×10^5 cells/coverslip and cultured for 2-3 days before use. […]

[4] = test system: phosphoinositol turnover in neonatal rat cardiomyocytes; settings: conference abstract, cited from earlier work

In the case of “Ac-D-Tyr-D-Pro-D-4Hyp-Gly-D-Ala-Gly-NH2 [Compound 2]”, the “increase in phospho-inositol turnover above the increase effected by noradrenaline alone” value ([1]; anoxia and glucose deprivation) is reported as “about 70%”, the “effect on noradrenaline induced increase in phospho-inositol turnover” value ([1]; control conditions) is reported as “no further effect” and the “CaCl2 mice In vivo, %” value [2] is reported as 65 +/− 7%. For the same substance, the “inducibility of epicardial reentry VT” value [3] was “no longer inducible”, the “dye transfer, number of cells” value (human osteoblast) was 9 cells and the “noradrenalin-induced level of PI turnover” value ([4]; normal athmospheric and nutritional conditions) was “do not alter”. The “noradrenalin-induced PI turnover, % of the normal level” value ([4]; oxygen and glucose deprivation) was roughly 90%.
